Measured values as given in patent US8017612B2, “Piperazine compound and use thereof as a HCV polymerase inhibitor” (priority 2006, dated 2011).
Structures can show the parent of a compound that is named as a salt.

Assays:
[1] = biological target: T1, HCV polymerase (NS5B) type 1a (Hepatitis C virus genotype 1a, UniProt P26664); test: Assay of enzyme (HCV polymerase) inhibitory activity, type 1a enzyme; type: biochemical, HCV type 1a (cloned from the blood of patients); conditions: HCV polymerase inhibitory activity (IC50), 1a, type 1a enzyme 1.5 μg/ml, 25° C., 60 min
T1 construct: made in house; host or cells: Escherichia coli (by the 'similar method' of the 1b enzyme)
How it was run: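 His-tagged NS5B, C-terminal 47 residues deleted, type 1a at 1.5 μg/ml, with 5 μg/ml HCV 3′UTR substrate RNA, 50 μM ATP/GTP/CTP, 2 μM UTP plus [3H]UTP, pH 7.5 Tris, 5 mM MgCl2; 60 min at 25° C. TCA-precipitated RNA counted by scintillation; IC50 from radioactivity with vs. without compound.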

[2] = biological target: T2, HCV polymerase (NS5B) type 1b (Hepatitis C virus genotype 1b, UniProt P26663); test: Assay of enzyme (HCV polymerase) inhibitory activity, type 1b enzyme; type: biochemical, HCV BK strain (type 1b); conditions: HCV polymerase inhibitory activity (IC50), 1b, type 1b enzyme 0.5 μg/ml, 25° C., 60 min
T2 construct: a region encoding NS5B (J Virol 1991 March, 65(3), 1105-13, 544 amino acids after deletion of 47 amino acids on the C-terminal); 6xHis (C); made in house; host or cells: Escherichia coli
How it was run: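 His-tagged, C-terminally truncated NS5B (BK strain, 1b; 0.5 μg/ml) incubated with compound 60 min at 25 °C on 3′UTR-derived substrate RNA (5 μg/ml), 50 μM ATP/GTP/CTP, 2 μM UTP plus [3H]UTP, pH 7.5. Acid-precipitated RNA counted; IC50 from radioactivity with and without compound.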

CC(=O)N1CCN(S(=O)(=O)c2ccc(C(C)(C)C)cc2)[C@@H](C(=O)NCc2ccc(C(C)C)cc2)C1 [Example 208, (R)-4-acetyl-1-(4-tert-butyl-benzenesulfonyl)-piperazine-2-carboxylic acid 4-isopropyl-benzylamide]
IC50 [1]: < 0.1 µM
IC50 [2]: < 0.1 µM

CN(C)c1ccc(CNC(=O)[C@H]2CNCCN2S(=O)(=O)c2ccc(C(F)(F)F)cc2)cc1 [Example 209, (R)-1-(4-trifluoromethyl-benzenesulfonyl)-piperazine-2-carboxylic acid 4-dimethylamino-benzylamide dihydrochloride]
IC50 [1]: > 1 µM
IC50 [2]: > 1 µM

CC(C)c1ccc(CNC(=O)[C@H]2CN(C(=O)Nc3cccnc3)CCN2S(=O)(=O)c2ccc(C(F)(F)F)cc2)cc1 [Example 211, (R)-4-(4-trifluoromethyl-benzenesulfonyl)-piperazine-1,3-dicarboxylic acid 3-(4-isopropyl-benzylamide) 1-pyridin-3-ylamide]
IC50 [1]: 0.1 to 1 µM
IC50 [2]: 0.1 to 1 µM

COC(=O)CCCCC(=O)N1CCN(S(=O)(=O)c2ccc(C(F)(F)F)cc2)[C@@H](C(=O)NCc2ccc(C(C)C)cc2)C1 [Example 212, 6-[(R)-3-(4-isopropyl-benzylcarbamoyl)-4-(4-trifluoromethyl-benzenesulfonyl)-piperazin-1-yl]-6-oxo-hexanoic acid methyl ester]
IC50 [1]: 0.1 to 1 µM
IC50 [2]: < 0.1 µM

CC(C)c1ccc(CNC(=O)[C@H]2CN(C(=O)CCCCC(=O)O)CCN2S(=O)(=O)c2ccc(C(F)(F)F)cc2)cc1 [Example 213, 6-[(R)-3-(4-isopropyl-benzylcarbamoyl)-4-(4-trifluoromethyl-benzenesulfonyl)-piperazin-1-yl]-6-oxo-hexanoic acid]
IC50 [1]: 0.1 to 1 µM
IC50 [2]: 0.1 to 1 µM

COc1ccc(S(=O)(=O)N2CCN(C(C)=O)C[C@@H]2C(=O)NCc2ccc(C(C)C)cc2)cc1 [Example 214, (R)-4-acetyl-1-(4-methoxy-benzenesulfonyl)-piperazine-2-carboxylic acid 4-isopropyl-benzylamide]
IC50 [1]: 0.1 to 1 µM
IC50 [2]: 0.1 to 1 µM

COc1ccc(S(=O)(=O)N2CCN(C(C)=O)C[C@@H]2C(=O)NCc2ccc(C(C)C)cc2)cc1C(C)C [Example 215, (R)-4-acetyl-1-(3-isopropyl-4-methoxy-benzenesulfonyl)-piperazine-2-carboxylic acid 4-isopropyl-benzylamide]
IC50 [1]: 0.1 to 1 µM
IC50 [2]: < 0.1 µM

COc1ccc(S(=O)(=O)N2CCN(C(C)=O)C[C@@H]2C(=O)NCc2ccc(C(C)C)cc2)cc1Cl [Example 216, (R)-4-acetyl-1-(3-chloro-4-methoxy-benzenesulfonyl)-piperazine-2-carboxylic acid 4-isopropyl-benzylamide]
IC50 [1]: 0.1 to 1 µM
IC50 [2]: 0.1 to 1 µM

COC(=O)Cc1cc(S(=O)(=O)N2CCN(C(C)=O)C[C@@H]2C(=O)NCc2ccc(C(C)C)cc2)ccc1OC [Example 217, {5-[(R)-4-acetyl-2-(4-isopropyl-benzylcarbamoyl)-piperazine-1-sulfonyl]-2-methoxy-phenyl}-acetic acid methyl ester]
IC50 [1]: > 1 µM
IC50 [2]: > 1 µM

COC(=O)CCc1cc(S(=O)(=O)N2CCN(C(C)=O)C[C@@H]2C(=O)NCc2ccc(C(C)C)cc2)ccc1OC [Example 218, 3-{5-[(R)-4-acetyl-2-(4-isopropyl-benzylcarbamoyl)-piperazine-1-sulfonyl]-2-methoxy-phenyl}-propionic acid methyl ester]
IC50 [1]: 0.1 to 1 µM
IC50 [2]: 0.1 to 1 µM

CC(C)c1ccc(CNC(=O)[C@H]2CN(C(=O)Cn3ccnc3)CCN2S(=O)(=O)c2ccc(C(F)(F)F)cc2)cc1 [Example 219, (R)-4-(2-imidazol-1-yl-acetyl)-1-(4-trifluoromethyl-benzenesulfonyl)-piperazine-2-carboxylic acid 4-isopropyl-benzylamide]
IC50 [1]: < 0.1 µM
IC50 [2]: < 0.1 µM

CC(C)c1ccc(CNC(=O)[C@H]2CN(C(=O)Cn3ccnn3)CCN2S(=O)(=O)c2ccc(C(F)(F)F)cc2)cc1 [Example 220, (R)-4-(2-[1,2,3]triazol-1-yl-acetyl)-1-(4-trifluoromethyl-benzenesulfonyl)-piperazine-2-carboxylic acid 4-isopropyl-benzylamide]
IC50 [1]: < 0.1 µM
IC50 [2]: < 0.1 µM

COc1ccc(S(=O)(=O)N2CCN(C(C)=O)C[C@@H]2C(=O)NCc2ccc(C(C)C)cc2)cc1CC(=O)O [Example 221, {5-[(R)-4-acetyl-2-(4-isopropyl-benzylcarbamoyl)-piperazine-1-sulfonyl]-2-methoxy-phenyl}-acetic acid]
IC50 [1]: > 1 µM
IC50 [2]: > 1 µM

COc1ccc(S(=O)(=O)N2CCN(C(C)=O)C[C@@H]2C(=O)NCc2ccc(C(C)C)cc2)cc1CCC(=O)O [Example 222, 3-{5-[(R)-4-acetyl-2-(4-isopropyl-benzylcarbamoyl)-piperazine-1-sulfonyl]-2-methoxy-phenyl}-propionic acid]
IC50 [1]: 0.1 to 1 µM
IC50 [2]: 0.1 to 1 µM

COC(=O)C(C)(C)c1ccc(CNC(=O)[C@H]2CN(C(C)=O)CCN2S(=O)(=O)c2ccc(C(C)C)cc2)cc1 [Example 223, 2-[4-({[(R)-4-acetyl-1-(4-isopropyl-benzenesulfonyl)-piperazine-2-carbonyl]-amino}-methyl)-phenyl]-2-methyl-propionic acid methyl ester]
IC50 [1]: 0.1 to 1 µM
IC50 [2]: 0.1 to 1 µM

CC(=O)N1CCN(S(=O)(=O)c2ccc(C(C)C)cc2)[C@@H](C(=O)NCc2ccc(CCO)cc2)C1 [Example 224, (R)-4-acetyl-1-(4-isopropyl-benzenesulfonyl)-piperazine-2-carboxylic acid 4-(2-hydroxy-ethyl)-benzylamide]
IC50 [1]: > 1 µM
IC50 [2]: > 1 µM

CC(C)c1ccc(CNC(=O)[C@H]2CN(C(=O)CN)CCN2S(=O)(=O)c2ccc(C(F)(F)F)cc2)cc1 [Example 225, (R)-4-(2-amino-acetyl)-1-(4-trifluoromethyl-benzenesulfonyl)-piperazine-2-carboxylic acid 4-isopropyl-benzylamide hydrochloride]
IC50 [1]: 0.1 to 1 µM
IC50 [2]: 0.1 to 1 µM

CC(=O)N1CCN(S(=O)(=O)c2ccc(C(C)C)cc2)[C@@H](C(=O)NCc2ccc(CO)cc2)C1 [Example 226, (R)-4-acetyl-1-(4-isopropyl-benzenesulfonyl)-piperazine-2-carboxylic acid 4-hydroxymethyl-benzylamide]
IC50 [1]: > 1 µM
IC50 [2]: > 1 µM

CSc1ccc(CNC(=O)[C@H]2CN(C(C)=O)CCN2S(=O)(=O)c2ccc(C(C)C)cc2)cc1 [Example 227, (R)-4-acetyl-1-(4-isopropyl-benzenesulfonyl)-piperazine-2-carboxylic acid 4-methylsulfanyl-benzylamide]
IC50 [1]: 0.1 to 1 µM
IC50 [2]: 0.1 to 1 µM

CC(C)c1ccc(CNC(=O)[C@H]2CN(C(=O)Cn3cccn3)CCN2S(=O)(=O)c2ccc(C(F)(F)F)cc2)cc1 [Example 228, (R)-4-(2-pyrazol-1-yl-acetyl)-1-(4-trifluoromethyl-benzenesulfonyl)-piperazine-2-carboxylic acid 4-isopropyl-benzylamide]
IC50 [1]: 0.1 to 1 µM
IC50 [2]: 0.1 to 1 µM

CC(C)c1ccc(CNC(=O)[C@H]2CN(C(=O)Cn3cncn3)CCN2S(=O)(=O)c2ccc(C(F)(F)F)cc2)cc1 [Example 229, (R)-4-(2-[1,2,4]triazol-1-yl-acetyl)-1-(4-trifluoromethyl-benzenesulfonyl)-piperazine-2-carboxylic acid 4-isopropyl-benzylamide]
IC50 [1]: < 0.1 µM
IC50 [2]: < 0.1 µM

CC(C)c1ccc(CNC(=O)[C@H]2CN(C(=O)Cn3cnnc3)CCN2S(=O)(=O)c2ccc(C(F)(F)F)cc2)cc1 [Example 230, (R)-4-(2-[1,2,4]triazol-4-yl-acetyl)-1-(4-trifluoromethyl-benzenesulfonyl)-piperazine-2-carboxylic acid 4-isopropyl-benzylamide]
IC50 [1]: < 0.1 µM
IC50 [2]: < 0.1 µM

CC(=O)N1CCN(S(=O)(=O)c2ccc(C(C)C)cc2)[C@@H](C(=O)NCc2ccc(C(C)(C)C(=O)O)cc2)C1 [Example 231, 2-[4-({[(R)-4-acetyl-1-(4-isopropyl-benzenesulfonyl)-piperazine-2-carbonyl]-amino}-methyl)-phenyl]-2-methyl-propionic acid]
IC50 [1]: > 1 µM
IC50 [2]: > 1 µM

CCc1ccc(CNC(=O)[C@H]2CN(C(C)=O)CCN2S(=O)(=O)c2ccc(C(C)C)cc2)cc1 [Example 232, (R)-4-acetyl-1-(4-isopropyl-benzenesulfonyl)-piperazine-2-carboxylic acid 4-ethyl-benzylamide]
IC50 [1]: 0.1 to 1 µM
IC50 [2]: 0.1 to 1 µM

CC(=O)N1CCN(S(=O)(=O)c2ccc(C(C)C)cc2)[C@@H](C(=O)NCc2ccc(C(C)(C)C(=O)N(C)C)cc2)C1 [Example 233, (R)-4-acetyl-1-(4-isopropyl-benzenesulfonyl)-piperazine-2-carboxylic acid 4-(1-dimethylcarbamoyl-1-methyl-ethyl)-benzylamide]
IC50 [1]: > 1 µM
IC50 [2]: > 1 µM

CC(=O)N1CCN(S(=O)(=O)c2ccc(C(C)C)cc2)[C@@H](C(=O)NCc2ccc(C3(CO)CC3)cc2)C1 [Example 234, (R)-4-acetyl-1-(4-isopropyl-benzenesulfonyl)-piperazine-2-carboxylic acid 4-(1-hydroxymethyl-cyclopropyl)-benzylamide]
IC50 [1]: > 1 µM
IC50 [2]: > 1 µM
